# Reference: ChEMBL document CHEMBL3885861, “Open TG-GATES”
# Species on record: Rattus norvegicus
# Assay: Open TG-GATES - Regimen: Single
# Type: toxicity, organism-based, Sprague-Dawley
# Set-up: regimen Single, gender Male, age 6 weeks
# Details: in vivo, po, route gavage; for APTT / Bas / Eos / Fbg / Hb / Ht / Lym / MCH / MCHC / MCV / Mono / Neu / PT / Plat / RBC / Ret / WBC: tissue Blood; for KIDNEY_L / KIDNEY_R / KIDNEY_TOTAL: tissue Kidney; for LIVER: tissue Liver; for ALP / ALT / AST / BUN / CRE / DBIL / GLC / K / LDH / Na / PL / RALB / TBIL / TC / TG / TP / gamma-GTP: tissue Plasma
# [1] = 150 mg/kg, 3 h, dose level Middle
# [2] = 150 mg/kg, 6 h, dose level Middle
# [3] = 150 mg/kg, 9 h, dose level Middle
# [4] = 150 mg/kg, 24 h, dose level Middle
# [5] = 450 mg/kg, 3 h, dose level High
# [6] = 450 mg/kg, 6 h, dose level High
# [7] = 450 mg/kg, 9 h, dose level High
# [8] = 450 mg/kg, 24 h, dose level High
structure (smiles),measurement,setting,value
CC(CCc1ccccc1)NCC(O)c1ccc(O)c(C(N)=O)c1 (configuration not stated) [LABETALOL],TERMINAL_BW,[1],215.7 g
same,APTT,[1],16.5 s
same,Bas,[1],0%
same,Eos,[1],0.8%
same,Fbg,[1],263.6 mg/dL
same,Hb,[1],12.4 g/dL
same,Ht,[1],36.2%
same,Lym,[1],77%
same,MCH,[1],21.9 pg
same,MCHC,[1],34.1%
same,MCV,[1],64.2 fL
same,Mono,[1],3%
same,Neu,[1],18.6%
same,PT,[1],13.3 s
same,Plat,[1],115.1 x10_4/uL
same,RBC,[1],564.6 x10_4/ul
same,Ret,[1],8.3%
same,WBC,[1],77.1 x10_2/uL
same,KIDNEY_L,[1],1 g
same,KIDNEY_R,[1],0.9 g
same,KIDNEY_TOTAL,[1],1.9 g
same,LIVER,[1],9.4 g
same,ALP,[1],1401.4 IU/L
same,ALT,[1],46 IU/L
same,AST,[1],73.6 IU/L
same,BUN,[1],12 mg/dL
same,CRE,[1],0.2 mg/dL
same,DBIL,[1],0.01 mg/dL
same,GLC,[1],207.2 mg/dL
same,K,[1],3.7 meq/L
same,LDH,[1],48.6 IU/L
same,Na,[1],142.2 meq/L
same,PL,[1],125.2 mg/dL
same,RALB,[1],2.5 g/dL
same,TBIL,[1],0.042 mg/dL
same,TC,[1],70 mg/dL
same,TG,[1],49.4 mg/dL
same,TP,[1],5.2 g/dL
same,gamma-GTP,[1],1.4 IU/L
same,TERMINAL_BW,[2],215.9 g
same,APTT,[2],15.9 s
same,Bas,[2],0%
same,Eos,[2],1%
same,Fbg,[2],269.8 mg/dL
same,Hb,[2],12.5 g/dL
same,Ht,[2],36.5%
same,Lym,[2],74.6%
same,MCH,[2],21.1 pg
same,MCHC,[2],34.3%
same,MCV,[2],61.7 fL
same,Mono,[2],3.6%
same,Neu,[2],20.2%
same,PT,[2],13.1 s
same,Plat,[2],106.3 x10_4/uL
same,RBC,[2],593.6 x10_4/ul
same,Ret,[2],7.9%
same,WBC,[2],81 x10_2/uL
same,KIDNEY_L,[2],0.9 g
same,KIDNEY_R,[2],0.9 g
same,KIDNEY_TOTAL,[2],1.8 g
same,LIVER,[2],8.9 g
same,ALP,[2],1487.8 IU/L
same,ALT,[2],39.4 IU/L
same,AST,[2],71 IU/L
same,BUN,[2],9.4 mg/dL
same,CRE,[2],0.2 mg/dL
same,DBIL,[2],0.01 mg/dL
same,GLC,[2],199.4 mg/dL
same,K,[2],4.2 meq/L
same,LDH,[2],44.8 IU/L
same,Na,[2],142.8 meq/L
same,PL,[2],126 mg/dL
same,RALB,[2],2.4 g/dL
same,TBIL,[2],0.04 mg/dL
same,TC,[2],73.2 mg/dL
same,TG,[2],41.8 mg/dL
same,TP,[2],5.1 g/dL
same,gamma-GTP,[2],1 IU/L
same,TERMINAL_BW,[3],213.9 g
same,APTT,[3],15.6 s
same,Bas,[3],0%
same,Eos,[3],0.8%
same,Fbg,[3],287.8 mg/dL
same,Hb,[3],12.5 g/dL
same,Ht,[3],37.1%
same,Lym,[3],77.6%
same,MCH,[3],21.8 pg
same,MCHC,[3],33.7%
same,MCV,[3],64.8 fL
same,Mono,[3],1.8%
same,Neu,[3],19.6%
same,PT,[3],13.2 s
same,Plat,[3],106.5 x10_4/uL
same,RBC,[3],572.4 x10_4/ul
same,Ret,[3],8.2%
same,WBC,[3],82.4 x10_2/uL
same,KIDNEY_L,[3],0.9 g
same,KIDNEY_R,[3],0.9 g
same,KIDNEY_TOTAL,[3],1.9 g
same,LIVER,[3],8.7 g
same,ALP,[3],1516.4 IU/L
same,ALT,[3],41.4 IU/L
same,AST,[3],68.4 IU/L
same,BUN,[3],10.2 mg/dL
same,CRE,[3],0.2 mg/dL
same,DBIL,[3],0.01 mg/dL
same,GLC,[3],185.4 mg/dL
same,K,[3],3.9 meq/L
same,LDH,[3],42.4 IU/L
same,Na,[3],144.6 meq/L
same,PL,[3],136.6 mg/dL
same,RALB,[3],2.6 g/dL
same,TBIL,[3],0.036 mg/dL
same,TC,[3],77.8 mg/dL
same,TG,[3],56.6 mg/dL
same,TP,[3],5.5 g/dL
same,gamma-GTP,[3],1.2 IU/L
same,TERMINAL_BW,[4],223.2 g
same,APTT,[4],14.8 s
same,Bas,[4],0%
same,Eos,[4],1%
same,Fbg,[4],345.2 mg/dL
same,Hb,[4],13.1 g/dL
same,Ht,[4],38.4%
same,Lym,[4],71.6%
same,MCH,[4],21 pg
same,MCHC,[4],34.2%
same,MCV,[4],61.4 fL
same,Mono,[4],3.8%
same,Neu,[4],23%
same,PT,[4],12.7 s
same,Plat,[4],116.5 x10_4/uL
same,RBC,[4],625.6 x10_4/ul
same,Ret,[4],8.2%
same,WBC,[4],77.1 x10_2/uL
same,KIDNEY_L,[4],0.9 g
same,KIDNEY_R,[4],0.9 g
same,KIDNEY_TOTAL,[4],1.8 g
same,LIVER,[4],10.1 g
same,ALP,[4],1738.6 IU/L
same,ALT,[4],45.6 IU/L
same,AST,[4],76 IU/L
same,BUN,[4],16.6 mg/dL
same,CRE,[4],0.2 mg/dL
same,DBIL,[4],0.016 mg/dL
same,GLC,[4],180.6 mg/dL
same,K,[4],4.3 meq/L
same,LDH,[4],72.6 IU/L
same,Na,[4],143.2 meq/L
same,PL,[4],159.6 mg/dL
same,RALB,[4],2.6 g/dL
same,TBIL,[4],0.038 mg/dL
same,TC,[4],92 mg/dL
same,TG,[4],96.4 mg/dL
same,TP,[4],5.7 g/dL
same,gamma-GTP,[4],1.2 IU/L
same,TERMINAL_BW,[5],212.9 g
same,APTT,[5],17.6 s
same,Bas,[5],0%
same,Eos,[5],1%
same,Fbg,[5],255.2 mg/dL
same,Hb,[5],12.2 g/dL
same,Ht,[5],35.8%
same,Lym,[5],76%
same,MCH,[5],21.5 pg
same,MCHC,[5],34.1%
same,MCV,[5],62.9 fL
same,Mono,[5],3.2%
same,Neu,[5],19.4%
same,PT,[5],13 s
same,Plat,[5],109.9 x10_4/uL
same,RBC,[5],569.4 x10_4/ul
same,Ret,[5],8.1%
same,WBC,[5],70.3 x10_2/uL
same,KIDNEY_L,[5],1 g
same,KIDNEY_R,[5],0.9 g
same,KIDNEY_TOTAL,[5],1.9 g
same,LIVER,[5],9.4 g
same,ALP,[5],1740.2 IU/L
same,ALT,[5],47 IU/L
same,AST,[5],73 IU/L
same,BUN,[5],13.2 mg/dL
same,CRE,[5],0.2 mg/dL
same,DBIL,[5],0.01 mg/dL
same,GLC,[5],198.4 mg/dL
same,K,[5],3.9 meq/L
same,LDH,[5],56.8 IU/L
same,Na,[5],142.4 meq/L
same,PL,[5],124 mg/dL
same,RALB,[5],2.4 g/dL
same,TBIL,[5],0.04 mg/dL
same,TC,[5],68.4 mg/dL
same,TG,[5],39.2 mg/dL
same,TP,[5],5.2 g/dL
same,gamma-GTP,[5],1.4 IU/L
same,TERMINAL_BW,[6],216.2 g
same,APTT,[6],16.6 s
same,Bas,[6],0%
same,Eos,[6],1%
same,Fbg,[6],288.6 mg/dL
same,Hb,[6],12.2 g/dL
same,Ht,[6],36.2%
same,Lym,[6],75.4%
same,MCH,[6],21.9 pg
same,MCHC,[6],33.8%
same,MCV,[6],64.8 fL
same,Mono,[6],2.6%
same,Neu,[6],20.4%
same,PT,[6],12.6 s
same,Plat,[6],112.1 x10_4/uL
same,RBC,[6],561 x10_4/ul
same,Ret,[6],8.2%
same,WBC,[6],89.2 x10_2/uL
same,KIDNEY_L,[6],1 g
same,KIDNEY_R,[6],0.9 g
same,KIDNEY_TOTAL,[6],1.9 g
same,LIVER,[6],9 g
same,ALP,[6],1401.4 IU/L
same,ALT,[6],42.6 IU/L
same,AST,[6],69.8 IU/L
same,BUN,[6],10 mg/dL
same,CRE,[6],0.2 mg/dL
same,DBIL,[6],0.006 mg/dL
same,GLC,[6],188.8 mg/dL
same,K,[6],4.1 meq/L
same,LDH,[6],53.4 IU/L
same,Na,[6],143.4 meq/L
same,PL,[6],131 mg/dL
same,RALB,[6],2.5 g/dL
same,TBIL,[6],0.038 mg/dL
same,TC,[6],78 mg/dL
same,TG,[6],23.2 mg/dL
same,TP,[6],5.2 g/dL
same,gamma-GTP,[6],1 IU/L
same,TERMINAL_BW,[7],218.2 g
same,APTT,[7],16 s
same,Bas,[7],0%
same,Eos,[7],0.8%
same,Fbg,[7],285 mg/dL
same,Hb,[7],12.8 g/dL
same,Ht,[7],37.5%
same,Lym,[7],75.4%
same,MCH,[7],22.6 pg
same,MCHC,[7],34.1%
same,MCV,[7],66.1 fL
same,Mono,[7],2%
same,Neu,[7],21.4%
same,PT,[7],12.9 s
same,Plat,[7],98.6 x10_4/uL
same,RBC,[7],567 x10_4/ul
same,Ret,[7],8%
same,WBC,[7],90.3 x10_2/uL
same,KIDNEY_L,[7],0.9 g
same,KIDNEY_R,[7],0.9 g
same,KIDNEY_TOTAL,[7],1.8 g
same,LIVER,[7],8.5 g
same,ALP,[7],1515.4 IU/L
same,ALT,[7],49.6 IU/L
same,AST,[7],71.2 IU/L
same,BUN,[7],9 mg/dL
same,CRE,[7],0.2 mg/dL
same,DBIL,[7],0.01 mg/dL
same,GLC,[7],179 mg/dL
same,K,[7],4.2 meq/L
same,LDH,[7],41.2 IU/L
same,Na,[7],144.2 meq/L
same,PL,[7],135 mg/dL
same,RALB,[7],2.5 g/dL
same,TBIL,[7],0.044 mg/dL
same,TC,[7],78 mg/dL
same,TG,[7],30.6 mg/dL
same,TP,[7],5.2 g/dL
same,gamma-GTP,[7],1 IU/L
same,TERMINAL_BW,[8],219.8 g
same,APTT,[8],15.5 s
same,Bas,[8],0%
same,Eos,[8],1%
same,Fbg,[8],290.8 mg/dL
same,Hb,[8],13 g/dL
same,Ht,[8],38.1%
same,Lym,[8],74%
same,MCH,[8],21.6 pg
same,MCHC,[8],34.2%
same,MCV,[8],62.9 fL
same,Mono,[8],2.6%
same,Neu,[8],22%
same,PT,[8],12.6 s
same,Plat,[8],115.1 x10_4/uL
same,RBC,[8],605.2 x10_4/ul
same,Ret,[8],7.5%
same,WBC,[8],68.4 x10_2/uL
same,KIDNEY_L,[8],1 g
same,KIDNEY_R,[8],0.9 g
same,KIDNEY_TOTAL,[8],1.9 g
same,LIVER,[8],9.6 g
same,ALP,[8],1840.6 IU/L
same,ALT,[8],44 IU/L
same,AST,[8],74 IU/L
same,BUN,[8],17.4 mg/dL
same,CRE,[8],0.2 mg/dL
same,DBIL,[8],0.012 mg/dL
same,GLC,[8],167.8 mg/dL
same,K,[8],4.7 meq/L
same,LDH,[8],55.2 IU/L
same,Na,[8],142.2 meq/L
same,PL,[8],144.8 mg/dL
same,RALB,[8],2.6 g/dL
same,TBIL,[8],0.03 mg/dL
same,TC,[8],88 mg/dL
same,TG,[8],57.8 mg/dL
same,TP,[8],5.6 g/dL
same,gamma-GTP,[8],1.2 IU/L
